Publication PMC11791039, “A split intein and split luciferase-coupled system for detecting protein-protein interactions” (Molecular Systems Biology, 2024)
Several values for one entry are separate records, joined by “and”; a condition that tells them apart may be missing. Identical values can stand only once. Blank lines part the entries; values can stand above or below the molecule they belong to.

How the values were obtained:
Format in all cases: cell-based
EGFR(WT)/SHC1 = biological target: T1, EGFR(WT)/SHC1 (Homo sapiens, UniProt P00533); assay: SIMPL2 assay EGFR(WT)/SHC1; details: for SIMPL2 signal, WT (Fig. 3D): replicates 1-4
T1 construct: β10-IN (tNLuc β10 peptide + GP41-1 split intein N fragment) (C); V5; expressed in transfected cells

MDM2/MDM4 interaction = biological target: T2, MDM2/MDM4 interaction (Homo sapiens, UniProt O15151+Q00987); assay: SIMPL2 assay MDM2/MDM4; details: for SIMPL2 signal, MDM2/MDM4 (Fig. 4A): replicates 1-4
T2 construct: β10-IN (tNLuc β10 peptide + GP41-1 split intein N fragment) (C); V5; IC-β9 (GP41-1 split intein C fragment + tNLuc β9 peptide) (N); FLAG; expressed in transfected cells
Description: We next tested the system with molecular glues, which are small molecule compounds that induce target protein interaction. […] To clarify, the two protein molecules are anchored together through a pair of dimerized RO-5963 molecules. […] Therefore, its binding kinetics display a monophasic change.
Figure 4 Evaluation of SIMPL2 as a drug discovery tool using molecular glue and PROTACs. […] Samples were measured and normalized as described in Materials and Methods. […] The cells were then subjected to SIMPL2 luciferase measurement, and the raw values are plotted.
Stable cells of target protein pair were created using Cas9 CRISPR. To characterize PPI modulators, the cells were seeded in 384 well plate (10,000 cells/well) and incubated for 5 h. […] Average signal of wells without either deoxycycline or compound treatment was used as blank or ‘floor’ signal (SF). The average signal of wells with deoxycycline treatment but without compound treatment was used as maximal interaction or ‘ceiling’ (SC). SIMPL2 reading of each sample (Ssample) was normalized according to the formula S^*sample = (Ssample– SF)/(SC– SF) x 100%, in which S^*sample stands for normalized signal. The normalized data of inhibitor experiments were fitted into a four-parameter inhibitor-response model.

control = biological target: T3, control (Homo sapiens, UniProt P01116, G12C); assay: SIMPL2 assay, control of Fig. 3B-D; details: replicates 1-4
T3 construct: IC-β9 (GP41-1 split intein C fragment + tNLuc β9 peptide) (N); FLAG; expressed in transfected cells

EGFR(L858R)/SHC1 = biological target: T4, EGFR(L858R)/SHC1 (Homo sapiens, UniProt P00533, L858R); assay: SIMPL2 assay EGFR(L858R)/SHC1; details: for SIMPL2 signal, L858R (Fig. 3D): replicates 1-4
T4 construct: β10-IN (tNLuc β10 peptide + GP41-1 split intein N fragment) (C); V5; expressed in transfected cells

KRAS(G12C)/RBD = biological target: T5, KRAS(G12C)/RBD (Homo sapiens, UniProt P01116, G12C); assay: SIMPL2 assay KRAS(G12C)/RBD; details: for SIMPL2 signal, KRAS(G12C)/RBD (Fig. 4A): replicates 1-4
T5 construct: IC-β9 (GP41-1 split intein C fragment + tNLuc β9 peptide) (N); FLAG; expressed in transfected cells

T2 sequence (Q00987 whole entry, the tested form may be a part): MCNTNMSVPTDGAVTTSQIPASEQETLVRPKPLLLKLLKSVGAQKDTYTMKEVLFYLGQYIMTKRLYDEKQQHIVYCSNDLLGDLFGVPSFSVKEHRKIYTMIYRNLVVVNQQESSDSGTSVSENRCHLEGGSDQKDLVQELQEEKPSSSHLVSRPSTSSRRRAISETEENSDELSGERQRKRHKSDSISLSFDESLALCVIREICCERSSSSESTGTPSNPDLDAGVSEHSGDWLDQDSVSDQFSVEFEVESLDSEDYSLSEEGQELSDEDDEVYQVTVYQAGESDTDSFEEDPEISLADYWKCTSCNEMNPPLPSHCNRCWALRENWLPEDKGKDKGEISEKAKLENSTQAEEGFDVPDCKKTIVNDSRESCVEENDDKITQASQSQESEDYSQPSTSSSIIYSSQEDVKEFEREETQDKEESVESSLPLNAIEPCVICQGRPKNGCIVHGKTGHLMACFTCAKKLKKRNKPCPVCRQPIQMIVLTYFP
T2 sequence (O15151 whole entry, the tested form may be a part): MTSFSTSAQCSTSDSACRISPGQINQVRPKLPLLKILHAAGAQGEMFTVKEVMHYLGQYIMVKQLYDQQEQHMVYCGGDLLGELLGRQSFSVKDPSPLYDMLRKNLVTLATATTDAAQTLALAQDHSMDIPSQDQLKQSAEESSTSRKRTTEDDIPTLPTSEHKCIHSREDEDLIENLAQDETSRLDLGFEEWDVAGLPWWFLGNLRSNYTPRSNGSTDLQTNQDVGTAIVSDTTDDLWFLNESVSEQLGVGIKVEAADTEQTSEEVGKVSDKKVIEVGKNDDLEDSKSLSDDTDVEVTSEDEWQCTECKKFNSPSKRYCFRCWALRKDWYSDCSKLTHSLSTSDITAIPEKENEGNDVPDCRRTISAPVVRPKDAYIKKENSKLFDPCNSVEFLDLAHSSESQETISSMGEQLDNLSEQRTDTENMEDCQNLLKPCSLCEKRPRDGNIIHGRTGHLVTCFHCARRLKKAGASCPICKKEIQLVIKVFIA

inhibition of EGFR(WT)/SHC1 interaction signal (EGFR(WT)/SHC1; doxycycline + compound 16 h): no effect
induction of MDM2/MDM4 interaction (MDM2/MDM4 interaction; 16 h with doxycycline): not observed
SIMPL2 signal, control (Fig. 3D) (control; AZD6244 6.4e-6 uM): 109.596 and 130.088
SIMPL2 signal, control (Fig. 3D) (control; AZD6244 0.004 uM): 92.396 and 92.6013 and 98.3715
SIMPL2 signal, control (Fig. 3D) (control; AZD6244 0.02 uM): 95.5614
SIMPL2 signal, control (Fig. 3D) (control; AZD6244 0.1 uM): 91.3936 and 91.141
SIMPL2 signal, control (Fig. 3D) (control; AZD6244 0.5 uM): 89.4044
SIMPL2 signal, L858R (Fig. 3D) (EGFR(L858R)/SHC1; AZD6244 0.004 uM): 85.9825 and 79.039 and 94.0877 and 83.58
effect on EGFR(L858R)/SHC1 interaction signal (EGFR(L858R)/SHC1; doxycycline + compound 16 h): no effect
Molecule: Cn1cnc2c(F)c(Nc3ccc(Br)cc3Cl)c(C(=O)NOCCO)cc21 [selumetinib, Selumetinib]
SIMPL2 signal, WT (Fig. 3D) (EGFR(WT)/SHC1; AZD6244 6.4e-6 uM): 117.981 and 128.314 and 91.3721 and 97.094
SIMPL2 signal, WT (Fig. 3D) (EGFR(WT)/SHC1; AZD6244 3.2e-5 uM): 96.8718 and 91.2055 and 86.3725 and 98.1494
SIMPL2 signal, WT (Fig. 3D) (EGFR(WT)/SHC1; AZD6244 0.00016 uM): 96.2607 and 97.2051 and 90.2055 and 118.204
SIMPL2 signal, WT (Fig. 3D) (EGFR(WT)/SHC1; AZD6244 0.0008 uM): 91.2055 and 95.2608 and 88.9279 and 100.427
SIMPL2 signal, WT (Fig. 3D) (EGFR(WT)/SHC1; AZD6244 0.004 uM): 91.5388 and 82.4283 and 71.7068 and 83.0949
SIMPL2 signal, WT (Fig. 3D) (EGFR(WT)/SHC1; AZD6244 0.02 uM): 79.8174 and 81.2062 and 88.8723 and 103.205
SIMPL2 signal, WT (Fig. 3D) (EGFR(WT)/SHC1; AZD6244 0.1 uM): 113.815 and 112.593 and 100.427 and 98.6494
SIMPL2 signal, WT (Fig. 3D) (EGFR(WT)/SHC1; AZD6244 0.5 uM): 103.76 and 101.094 and 97.3717 and 91.7054
SIMPL2 signal, MDM2/MDM4 (Fig. 4A) (MDM2/MDM4 interaction; AZD6244 0.013717 uM): 105.342 and 94.3499 and 91.2095 and 111.623
SIMPL2 signal, MDM2/MDM4 (Fig. 4A) (MDM2/MDM4 interaction; AZD6244 0.041152 uM): 84.4799 and 83.2835 and 83.9564 and 94.7238
SIMPL2 signal, MDM2/MDM4 (Fig. 4A) (MDM2/MDM4 interaction; AZD6244 0.37037 uM): 85.1528 and 73.4882 and 95.2472 and 81.3394
SIMPL2 signal, MDM2/MDM4 (Fig. 4A) (MDM2/MDM4 interaction; AZD6244 1.11111 uM): 73.7125 and 92.2563 and 82.1619 and 85.5267
SIMPL2 signal, MDM2/MDM4 (Fig. 4A) (MDM2/MDM4 interaction; AZD6244 3.33333 uM): 70.0486 and 88.8915 and 67.3568 and 90.3869
SIMPL2 signal, MDM2/MDM4 (Fig. 4A) (MDM2/MDM4 interaction; AZD6244 10 uM): 78.4232 and 90.5365 and 82.0123 and 90.6113
SIMPL2 signal, control (Fig. 3D) (control; AZD6244 3.2e-5 uM): 98.632 and 104.891 and 97.5584 and 100.637
SIMPL2 signal, control (Fig. 3D) (control; AZD6244 0.00016 uM): 97.4795 and 101.781 and 98.0162 and 96.0508
SIMPL2 signal, control (Fig. 3D) (control; AZD6244 0.0008 uM): 100.171 and 103.684 and 97.3453 and 101.418
SIMPL2 signal, L858R (Fig. 3D) (EGFR(L858R)/SHC1; AZD6244 6.4e-6 uM): 107.975 and 92.9525 and 107.024 and 103.355
SIMPL2 signal, L858R (Fig. 3D) (EGFR(L858R)/SHC1; AZD6244 3.2e-5 uM): 88.2795 and 92.9261 and 92.1077 and 96.4375
SIMPL2 signal, L858R (Fig. 3D) (EGFR(L858R)/SHC1; AZD6244 0.00016 uM): 108.688 and 85.5073 and 82.6824 and 92.9525
SIMPL2 signal, L858R (Fig. 3D) (EGFR(L858R)/SHC1; AZD6244 0.0008 uM): 91.1572 and 94.7742 and 86.1145 and 84.24
SIMPL2 signal, L858R (Fig. 3D) (EGFR(L858R)/SHC1; AZD6244 0.02 uM): 89.8635 and 58.7628 and 116.819 and 92.2661
SIMPL2 signal, L858R (Fig. 3D) (EGFR(L858R)/SHC1; AZD6244 0.1 uM): 96.4375 and 99.3416 and 96.3319 and 106.18
SIMPL2 signal, L858R (Fig. 3D) (EGFR(L858R)/SHC1; AZD6244 0.5 uM): 85.5073 and 101.612 and 96.3583 and 99.632

Molecule: RO-5963
concentration above which MDM2/MDM4 interaction declines (hook effect) (MDM2/MDM4 interaction; 16 h with doxycycline): above 3 μM
concentration above which MDM2/MDM4 interaction was observed (MDM2/MDM4 interaction; 16 h with doxycycline): above 0.3 μM
concentration of peak MDM2/MDM4 interaction (MDM2/MDM4 interaction; 16 h with doxycycline): 3 µM
SIMPL2 signal, MDM2/MDM4 (Fig. 4A) (MDM2/MDM4 interaction; RO-5963 0.013717 uM): 98.5373 and 90.6113 and 85.0033 and 102.575
SIMPL2 signal, MDM2/MDM4 (Fig. 4A) (MDM2/MDM4 interaction; RO-5963 0.041152 uM): 93.004 and 86.0501 and 89.041 and 96.2193
SIMPL2 signal, MDM2/MDM4 (Fig. 4A) (MDM2/MDM4 interaction; RO-5963 0.37037 uM): 155.514 and 142.28 and 150.579 and 141.083
SIMPL2 signal, MDM2/MDM4 (Fig. 4A) (MDM2/MDM4 interaction; RO-5963 1.11111 uM): 502.238 and 458.421 and 548.523 and 430.606
SIMPL2 signal, MDM2/MDM4 (Fig. 4A) (MDM2/MDM4 interaction; RO-5963 3.33333 uM): 934.354 and 877.9 and 842.009 and 825.259
SIMPL2 signal, MDM2/MDM4 (Fig. 4A) (MDM2/MDM4 interaction; RO-5963 10 uM): 374.451 and 365.777 and 368.394 and 378.937
SIMPL2 signal, KRAS(G12C)/RBD (Fig. 4A) (KRAS(G12C)/RBD; RO-5963 0.013717 uM): 109.968 and 129.491
SIMPL2 signal, KRAS(G12C)/RBD (Fig. 4A) (KRAS(G12C)/RBD; RO-5963 0.041152 uM): 115.427 and 110.7 and 113.906 and 96.9775
SIMPL2 signal, KRAS(G12C)/RBD (Fig. 4A) (KRAS(G12C)/RBD; RO-5963 0.37037 uM): 127.273 and 113.795 and 114.951
SIMPL2 signal, KRAS(G12C)/RBD (Fig. 4A) (KRAS(G12C)/RBD; RO-5963 1.11111 uM): 136.524 and 105.719 and 127.623 and 137.333
SIMPL2 signal, KRAS(G12C)/RBD (Fig. 4A) (KRAS(G12C)/RBD; RO-5963 3.33333 uM): 110.236 and 106.312 and 130.946
SIMPL2 signal, KRAS(G12C)/RBD (Fig. 4A) (KRAS(G12C)/RBD; RO-5963 10 uM): 136.758 and 112.554 and 138.094 and 146.423
effect on KRAS(G12C)/RBD control interaction signal (KRAS(G12C)/RBD; doxycycline + compound 16 h, tested concentration range): not affected
